# Values quoted from earlier work in US20250213469A1, “DOSAGE FORMS OF ACTIVE […] AGAINST VIRAL DISEASES IN DRY POWDER INHALER DEVICE FOR SYMPTOMS CAUSED BY COVID-19 AND OTHER VIRAL LUNG DISEASES” ([…] EGITIM D[…].S., priority 2022, published 2025).
# Conditions: C3H/HeN mice, positron emission tomography; literature study of Bocan et al.
smiles,measurement,value
NC(=O)c1nc(F)c[nH]c1=O [[^18F] Favipiravir],tissue retention (biodistribution) of the active substance,"retained lowest in the lungs and the most in the kidney, liver and stomach"
